# How the values were obtained:
# [1] = tested on: Mouse CML leukemia stem cells (LSC, Lin-Sca-1+c-kit+Fit3-CD150+CD48-); experiment: Apoptosis and cell growth of mouse CML leukemia stem cells; assay type: cell-based; details: combined with NIL, compared with CpG-SCR+NIL
# Method: Mouse CML leukemia stem cells (LSC, Lin-Sca-1+c-kit+Fit3-CD150+CD48-) were sorted and treated with CpG-anti-miR-126 inhibitor or CpG-SCR (500 nM) for 48 hours, then furthered treated with miR126 inhibitor+NIL or SCR+NIL for 72 hours, then apoptosis and cell growth were measured.
# [2] = tested on: normal and CML CD34+CD38− primitive progenitors; experiment: Cell cycling of CD34+CD38- cells by EDU/DAPi staining; assay type: cell-based, human; details: 500 nM, 72 hours
# Method: FIGS. 9A-9D are a series of cell sorting plots showing increased cell cycle in CD34+CD38− cells after knockdown of […]. Normal (NL; FIGS. 9A-9B) and CML human CD34+CD38− cells (FIGS. 9C-9D) were sorted and then cultured with 500 nm CpG-miR126 inh-Cy3 or CpG-SCR control for 72 hours, and then cell cycling was analyzed by EDU/DAPi staining.
# (§1) CML CD34+, CD34+CD38+ committed and CD34+CD38− primitive progenitors were cultured with CpG-scramble RNA (500 nM), CpG-anti-miR126 inhibitor (500 nM), CpG-scramble RNA (500 nM)+Nilotinib (NIL, 5 uM), and CpG-anti-miR126 inhibitor (500 nM)+NIL (5 uM) for 72 hours and then cell cycling and apoptosis were analyzed by EDU/DAPi and Annexin V/DAPi staining.
# [3] = tested on: CML cells in SCLtTA/BCR-ABL mice; experiment: In vivo treatment of SCLtTA/BCR-ABL mice; parameters: species or system mouse; details: 3 weeks, compared with NIL+SCR
# Method: SCLtTA/BCR-ABL mice were treated with CpG-miR-126 inhibitor (5 mg/kg, every other day, iv injection), SCR (5 mg/kg, every other day, iv injection), NIL (50 mg/kg, daily by garage)+SCR, NIL+miR-126 inhibitor for 3 weeks and then the remaining CML cells in the PB (FIG. 13A), BM (FIG. 13C) and spleen (FIG. 13D) were analyzed.
# FIGS. 14A-D are scatter plots showing reduced CML LSK and LSC observed in the bone marrow (BM) (FIGS. 14A, 14C) and spleen (FIGS. 14B, 14D) of the mice treated with NIL+miR126 inhibitor compared with the mice treated with NIL+SCR. SCLtTA/BCR-ABL mice were treated with CpG-miR-126 inhibitor, SCR, NIL+SCR, NIL+miR-126 inhibitor for 3 weeks and then the remaining CML LSK primitive cells and LSC in the BM and spleen were analyzed.
# SCLtTA/BCR-ABL mice were treated with CpG-miR-126 inhibitor (5 mg/kg, every other day, iv injection), SCR (5 mg/kg, every other day, iv injection), NIL (50 mg/kg, daily by garage)+SCR, NIL+miR-126 inhibitor for 3 weeks and then the remaining CML cells in the PB, BM and spleen were analyzed. […] The effect of CpG-anti-miR-126 on growth of primary AML LSC and therapeutic response in vivo is still ongoing. These observations indicate that blocking of miR-126 by a myeloid cell-specific CpG-anti-miR-126 ODN inhibitor, among other compounds of the present disclosure, is very effective, and therefore represents a novel therapeutic method targeting miRNA in leukemia and other types of cancer disclosed herein.
# miR126 = miR126 expression in CML CD34+CD38+ committed and CD34+CD38- primitive progenitors by q-RT-PCR; assay type: cell-based, human; details: 500 nM
# Method: CML CD34+CD38+ committed and CD34+CD38− primitive progenitors were cultured with CpG-scramble RNA (500 nM) or CpG-miR126 inhibitor (500 nM) for 36 hours and then miR126 and RNU44 (control) expression in these cells were analyzed by q-RT-PCR. The miR126 expression levels were normalized to RNU44 and calculated by using the comparative 2^−ΔΔCt method.
# as §1
# [4] = 5 mg/kg every other day iv + NIL 50 mg/kg daily
substance,measurement,setting,value
5′ G*G*T GCA TCG ATG CAGG*G*G* G*G (SEQ ID NO: 1) xxxxx mCmGmC mAmUmU mAmUmU mAmCmU mCmAmC mGmGmU mAmCmG mA (SEQ ID NO: 17) 3′ [CpG-anti-miR126],apoptosis of LSC,[1],significantly increased apoptosis
same,cell growth of LSC,[1],significant reduction of cell growth
same,cell cycling,[2],Increased cell cycling
same,CML white blood cells in the PB,[3]; [4],Reduced CML white blood cells
same,spleen weight,[3]; [4],Reduced spleen weight
same,CML LSK in the BM and spleen,[3]; with NIL,Reduced
same,CML LTHSC in the BM and spleen,[3]; with NIL,Reduced
same,CML cells in the BM and spleen,[3]; with NIL,Reduced
same,reduction of miR126 expression,miR126,More than 90%

# Source: patent US11591596B2, “Compounds and compositions including phosphorothioated oligodeoxynucleotide, and methods of use thereof” (City of Hope, priority 2015, dated 2023)
